Test results published in patent US7759345B2, “Antitumoral derivatives of ET-743” (priority 2001, dated 2010).

Assays:
K-562 = assay: Inhibition of cells growth by colorimetric assay (SRB), K-562; type: cell-based; conditions: K-562, SRB, 48 hours exposure
In short: (§1)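 Compound in DMSO/EtOH/PBS vehicle was applied at 10 to 10^−8 μg/ml to attached cells (5×10^3/well, 18 h) for 48 h. Cells were then fixed with cold TCA and stained with 0.4% SRB in 1% acetic acid.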

A-549 = assay: Inhibition of cells growth by colorimetric assay (SRB), A-549; type: cell-based; conditions: A-549, SRB, 48 hours exposure
In short: as §1

SK-MEL-28 = assay: Inhibition of cells growth by colorimetric assay (SRB), SK-MEL-28; type: cell-based; conditions: MEL-28, SRB, 48 hours exposure
In short: as §1

HT-29 = assay: Inhibition of cells growth by colorimetric assay (SRB), HT-29; type: cell-based; conditions: SRB, 48 hours exposure
In short: as §1

LoVo = assay: Inhibition of cells growth by colorimetric assay (SRB), LoVo; type: cell-based; conditions: LOVO, SRB, 48 hours exposure
In short: as §1

LoVo-Dox = assay: Inhibition of cells growth by colorimetric assay (SRB), LoVo-Dox; type: cell-based; conditions: SRB, 48 hours exposure
In short: as §1

DU-145 = assay: Inhibition of cells growth by colorimetric assay (SRB), DU-145; type: cell-based; conditions: SRB, 48 hours exposure
In short: as §1

LNCaP = assay: Inhibition of cells growth by colorimetric assay (SRB), LNCaP; type: cell-based; conditions: LNCAP, SRB, 48 hours exposure
In short: as §1

SK-BR-3 = assay: Inhibition of cells growth by colorimetric assay (SRB), SK-BR-3; type: cell-based; conditions: SK-BR3, SRB, 48 hours exposure
In short: as §1

IGROV-1 = assay: Inhibition of cells growth by colorimetric assay (SRB), IGROV-1; type: cell-based; conditions: IGROV, SRB, 48 hours exposure
In short: as §1

IGROV-ET = assay: Inhibition of cells growth by colorimetric assay (SRB), IGROV-ET; type: cell-based; conditions: IGROV-ET, SRB, 48 hours exposure
In short: as §1

SK-OV-3 = assay: Inhibition of cells growth by colorimetric assay (SRB), SK-OV-3; type: cell-based; conditions: SRB, 48 hours exposure
In short: as §1

PANC-1 = assay: Inhibition of cells growth by colorimetric assay (SRB), PANC-1; type: cell-based; conditions: SRB, 48 hours exposure
In short: as §1

HMEC1 = assay: Inhibition of cells growth by colorimetric assay (SRB), HMEC1; type: cell-based; conditions: SRB, 48 hours exposure
In short: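 48 h SRB cytotoxicity assay; compound range 10–10^−8 μg/ml; seeding 5×10^3 cells/well, 18 h pre-attachment; OD 490 nm; GI, TGI, LC from triplicate means ± SD.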

Excerpt for Heart: (§2) Toxicity was asssessed by the methods reported in Toxicology in Vitro, 15 (2001) 571-577, J. Luber Narod et al.: “Evaluation of the use of in vitro methodolodies as tools for screening new compounds for potential in vivo toxicity”.
Excerpt for Kidney: as §2
Excerpt for Liver: as §2
Excerpt for Myelo: as §2
Excerpt for Skeletal: as §2

COc1cc2c(cc1OC(=O)Cc1cc(=O)oc3cc(N(C)C)ccc13)CCN[C@]21CS[C@@H]2c3c(OC(C)=O)c(C)c4c(c3[C@H](COC1=O)N1C2[C@H]2c3c(cc(C)c(OC)c3OC(=O)Cc3cc(=O)oc5cc(N(C)C)ccc35)C[C@@H]([C@@H]1O)N2C)OCO4 (some centres unmarked) [Compound 77]
K-562 TGI (K-562): 7.77E-10
GI50 (K-562; read-out: K-562 GI50): 0.277 nM
LC50 (50% cell killing) (K-562; read-out: K-562 LC50): 37.9 nM
TGI A-549 (A-549): 3.64E-09
GI50 (A-549; read-out: GI50 A-549): 2.11 nM
LC50 (concentration for 50% cell killing) (A-549; read-out: A-549 LC50): 6.29 nM
MEL-28 TGI (SK-MEL-28): 5.06E-10
GI50 (SK-MEL-28; read-out: MEL-28 GI50): 0.266 nM
CC50 (SK-MEL-28; read-out: MEL-28 LC50): 0.962 nM
HT-29 TGI (HT-29; HT-29): 9.52E-09
GI50 (HT-29; HT-29, read-out: HT-29 GI50): 2.96 nM
LC50 (concentration for 50% cell killing) (HT-29; Homo sapiens, HT-29, 48 h, read-out: HT-29 LC50, HT-29): 10100 nM
LOVO TGI (LoVo): 3.96E-09
GI50 (LoVo; read-out: LOVO GI50): 1.91 nM
LC50 (concentration for 50% cell killing) (LoVo; read-out: LOVO LC50): 8.21 nM
CC50 (LoVo-Dox; Homo sapiens, 48 h, read-out: LOVO-DOX LC50, LOVO-DOX): 10100 nM
LOVO-DOX TGI (LoVo-Dox; LOVO-DOX): 9.39E-08
GI50 (LoVo-Dox; LOVO-DOX, read-out: LOVO-DOX GI50): 31.3 nM
DU-145 TGI (DU-145; DU-145): 1.45E-09
GI50 (DU-145; DU-145, read-out: DU-145 GI50): 0.488 nM
CC50 (DU-145; Homo sapiens, DU-145, 48 h, read-out: DU-145 LC50, DU-145): 10100 nM
LNCAP TGI (LNCaP): 6.12E-10
GI50 (LNCaP; read-out: LNCAP GI50): 0.328 nM
CC50 (LNCaP; read-out: LNCAP LC50): 1.58 nM
SK-BR3 TGI (SK-BR-3): 2.04E-09
GI50 (SK-BR-3; read-out: SK-BR3 GI50): 0.475 nM
CC50 (SK-BR-3; read-out: SK-BR3 LC50): 8.12 nM
IGROV TGI (IGROV-1): 1.53E-09
GI50 (IGROV-1; read-out: IGROV GI50): 0.454 nM
CC50 (IGROV-1; read-out: IGROV LC50): 8.82 nM
IGROV-ET TGI (IGROV-ET): 9.57E-08
GI50 (IGROV-ET; read-out: IGROV-ET GI50): 4.22 nM
CC50 (IGROV-ET; read-out: IGROV-ET LC50): 303 nM
GI50 (SK-OV-3; Homo sapiens, SK-OV-3, 48 h, SK-OV3, read-out: SK-OV3 GI50): 2.55 nM
LC50 (SK-OV-3; Homo sapiens, SK-OV-3, 48 h, read-out: SK-OV3 LC50, SK-OV3): 10100 nM
SK-OV3 TGI (SK-OV-3; SK-OV3): 7.76E-09
GI50 (PANC-1; Homo sapiens, PANC-1, 48 h, PANC-1, read-out: PANC-1 GI50): 3.27 nM
LC50 (concentration for 50% net cell kill) (PANC-1; Homo sapiens, PANC-1, 48 h, read-out: PANC-1 LC50, PANC-1): 6300 nM
PANC-1 TGI (PANC-1; PANC-1): 9.14E-09
HMEC-1 TGI (HMEC1; HMEC-1): 5.28E-08
GI50 (HMEC1; HMEC-1, read-out: HMEC-1 GI50): 5.28 nM
LC50 (HMEC1; Homo sapiens, HMEC-1, 48 h, read-out: HMEC-1 LC50, HMEC-1): 10100 nM
Toxicity Data Liver (Liver): 9.53E-09
Toxicity Data Heart (Heart): 1.64E-08
Toxicity Data Myelo (Myelo): 8.52E-09
Toxicity Data Skeletal (Skeletal): 2.20E-09
Toxicity Data Kidney (Kidney): 3.22E-09
